Results: PMC12209456, “Serine/threonine/tyrosine kinase 1 drives pancreatic carcinogenesis via GSK3β sequestration-mediated Wnt/β-catenin pathway hyperactivation” (Signal Transduction and Targeted Therapy, 2025)
Where a name gives a salt, the structure may show the parent alone.

Columns and labels:
[1] = system: Wnt/β-catenin signaling in colorectal cancer; settings: cited from earlier work
From the text: Continuously activated Wnt/β-catenin signaling via genetic or epigenetic ways, serves as a potent oncogenic driver across malignancies, spurring intensive efforts to develop targeted inhibitors. Nonetheless, tissue homeostasis and regeneration could be impaired upon the blockade of Wnt signaling, which needs to be resolved and limits Wnt-based therapies. Recent breakthroughs have unmasked tumor-specific vulnerabilities, identifying cancer-cell-restricted regulators that fine-tune Wnt signaling outputs, offering promising avenues for selectively crippling oncogenic Wnt activity.[59] For example ...

[2] = system: β-catenin/TCF4 transcriptional activity; assay: 7TGC reporter assay; assay type: cell-based, human; settings: PANC-1 cells, EGF (100 ng/mL) or CQ (100 μM)
From the text: The PCR products of STYK1, GSK3β, and Axin1 were cloned into pcDNA3.1-3×HA, pCMV-3×Flag (Sigma, E4401), and pCMV-mCherry (constructed by our lab) respectively. […] To make STYK1, β-catenin, GSK3β, or BLK mutants or truncations, a series of forwarding primers harboring the desired mutations were used in PCRs. The nucleotide sequences of all constructs were confirmed by DNA sequencing. […] DNA and interference RNA were transfected with Lipofectamine 3000 (Invitrogen, L3000015) according to the manufacturer’s instructions. shRNA for STYK1 #1: 5ʹ- [sequence] -3ʹ. #2: 5ʹ- [sequence] -3ʹ. siRNA for STYK1 was 5ʹ- [sequence] -3ʹ. siRNA for β-catenin was 5ʹ- [sequence] -3ʹ. siRNA for HRS was 5ʹ- [sequence] -3ʹ, siRNA for VPS24 was 5ʹ- [sequence] -3ʹ.

[3] = system: CyclinD1/Axin2/C-myc; assay: Wnt target gene expression (western blot, qRT-PCR); assay type: cell-based, human; settings: PANC-1 cells, EGF (100 ng/mL) or CQ (100 μM)
Protocol: Whole-cell extracts were prepared with 1% sodium dodecyl sulfate lysis buffer with freshly added 1% proteinase inhibitor cocktail (Biomake, B14001) and 1 mM phenylmethylsulfonyl fluoride (PMSF, MCE, HY-B0496). Western blot was performed as described previously.[20]
Total RNA was extracted from cultured pancreatic cancer cells using Trizol reagent (Invitrogen) according to the manufacturer’s protocol. qRT-PCR was performed as previously described.^3 The mRNA expression level for each sample was normalized to the expression of GAPDH using the 2 ^-ΔΔct method^4 with three biological replicates of comparative qRT-PCR. The following primer sequences were used for qRT-PCR: GAPDH, (forward) 5′- […] -3′ and (reverse) 5′- […] -3′; CyclinD1, (forward) 5′- […] -3′ and (reverse) 5′- […] -3′; C-myc, (forward) 5′- […] -3′ and (reverse) 5′- […] -3′; Axin2, (forward) 5′- […] -3′ and (reverse) 5′- […] -3′; STYK1, (forward) 5′- […] -3′ and (reverse) 5′- […] -3′. Amplification was performed in an ABI Q3 real-time PCR system using a SYBR Green master mix (YEASEN, 11201ES08).

[4] = system: STYK1 Y191 phosphorylation by BLK kinase; assay: STYK1 tyrosine phosphorylation by BLK (IP-Western / in vitro kinase assay); assay type: biochemical; settings: HEK293T cells, BLK overexpression; GST-STYK1 ICD and HA-BLK kinase reactions
Protocol: (§1) Whole-cell extracts were prepared with 1% sodium dodecyl sulfate lysis buffer with freshly added 1% proteinase inhibitor cocktail (Biomake, B14001) and 1 mM phenylmethylsulfonyl fluoride (PMSF, MCE, HY-B0496). Western blot was performed as described previously.[20] The following primary antibodies were used: anti-phospho-β-catenin (Ser33/37/Thr41) (9561, Cell Signaling Technology), anti-β-catenin (51067-2-AP, Proteintech), anti-β-TrCP (4394, Cell Signaling Technology), anti-Non-phospho (Active) β-catenin (Ser33/37/Thr41) (8814, Cell Signaling Technology), anti-STYK1 (862318, zenbio), anti-C-myc (10828-1-AP, Proteintech), anti-CyclinD1 (60186-1-Ig, Proteintech), anti-Axin2 (20540-1-AP, Proteintech), anti-mouse HA (M180-3, EMD Millipore), anti-Rabbit HA (51064-2-AP, Proteintech), anti-mouse […] (M185, MBL), anti-Rabbit […] […]
GST affinity-isolation assay was performed as described previously.[18] […] Surface plasmon resonance analysis (Biacore T200) quantified binding kinetics between GST-β-catenin/GSK3β and synthetic α-helical peptides, with dissociation constants calculated via BIA evaluation software.

[5] = system: p62 and LC3; assay: Autophagic flux markers p62 and LC3, PANC-1 cells (western blot); assay type: cell-based, human
Protocol: as §1

[6] = system: Wnt/β-catenin signaling; assay: STYK1-mediated Wnt/β-catenin signaling, PANC-1 cells; assay type: cell-based, human
Protocol: as §1

[7] = system: PANC-1 xenograft; assay: PANC-1 xenograft in nude mice; assay type: in vivo, mouse
Protocol: PANC-1 xenograft tumors were further established in nude mice via subcutaneous hindlimb injection (Fig. 8e). 25 mg/kg STYK1-driving peptides were intraperitoneally injected twice a week after the subcutaneous tumor formed.
(2) Mouse subcutaneous xenograft experiments were carried out as previously described.[25] Female BALB/c nude mice (4-week-old, 18–22 g) were sourced from Hunan SJA Laboratory Animal (Cat: hnslkjd006; Changsha, China) and housed under SPF conditions with routine health surveillance.

## bafilomycin
[1]
  inhibition of Wnt/β-catenin signaling: marked inhibition of Wnt/β-catenin signaling in colorectal cancer

## CCN(CC)CCCC(C)Nc1ccnc2cc(Cl)ccc12 (stereo not shown) [CQ, chloroquine diphosphate salt]
[2]
  Wnt signaling in the 7TGC system: decreased Wnt signaling in the 7TGC system
[3]
  STYK1-mediated alteration of the Wnt/β-catenin target genes C-myc, Axin2: down-regulated STYK1-mediated alteration of the Wnt/β-catenin target genes C-myc, Axin2

## CN1CCN(CCOc2cc(OC3CCOCC3)c3c(Nc4c(Cl)ccc5c4OCO5)ncnc3c2)CC1 [saracatinib]
[4]
  BLK-mediated phosphorylation of STYK1 Y191: saracatinib inhibition

## O=C(N/N=C/c1ccc(O)c(O)c1)c1cc2ccccc2cc1O [dynasore]
[5]
  level of LC3: decreased
  level of p62: increased
[6]
  STYK1-mediated activation of Wnt/β-catenin signaling: significantly blocked STYK1-mediated activation of Wnt/β-catenin signaling

## Oc1nc(-c2ccc(C(F)(F)F)cc2)nc2c1CSCC2 [XAV939]
[7]; BALB/c nude mice, PANC-1 xenografts, biweekly intraperitoneal, synthetic peptides (25 mg/kg)
  tumor growth (methods statement): reduced tumor growth
[7]; PANC-1 xenografts with STYK1 WT or mutants, nude mice, n = 3
  STYK1-mediated xenograft tumor growth: suppressed STYK1-mediated xenograft tumor growth, including mutant variants

## C/C=C/[C@H]1O[C@@](O)([C@@H](C)[C@H](O)[C@H](C)[C@H]2OC(=O)/C(OC)=C/C(C)=C/[C@@H](C)[C@@H](O)[C@@H](CC)[C@@H](O)[C@H](C)C/C(C)=C/C=C/[C@@H]2OC)C[C@@H](O)[C@@H]1C [concanamycin]
[1]
  inhibition of Wnt/β-catenin signaling: marked inhibition of Wnt/β-catenin signaling in colorectal cancer
